The test system of test [1] is KRAS mutation-positive human cancer cell line NCI-H1373. The experiment in a line: In vivo antitumor activity, NCI-H1373-transplanted models (Example 5). The settings on record: sodium salt of compound 1 0.25 mg/kg orally once a day and/or TNO155 10 mg/kg orally twice a day, 30 days. Also noted: species or system nude mice. As to the method:
(§1) Use in combination of the sodium salt of the compound 1 and TNO155 was evaluated for its in vivo antitumor activity using nude mice in which any of KRAS mutation-positive human cancer cell lines NCI-H1373, NCI-H358 and NCI-H441 (all, ATCC) was transplanted. The NCI-H1373 cells, the NCI-H358 cells, and the NCI-H441 cells were subcutaneously transplanted at 5×10^6, 1×10^7, and 5×10^6, respectively, per mouse to the mice. The mice were grouped (n=5) when a tumor volume reached approximately 150 to 300 mm^3.
(§2) The NCI-H1373-, NCI-H358- or NCI-H441-transplanted models received the single-agent administration or combined administration of the sodium salt of the compound 1 and TNO155. The sodium salt of the compound 1 was dissolved in solvent A for administration. TNO155 was diluted with 0.5% Tween 80 and 0.5% methyl cellulose prepared with injectable distilled water (solvent D) for administration.
Administration to the NCI-H1373-transplanted models was performed as described below. The sodium salt of the compound 1 and the solvent D were administered at 0.25 mg/kg and 10 ml/kg, respectively, to the single-agent administration group of the sodium salt of the compound 1. […]
(§3) The tumor volumes of the mice were calculated according to the expression (4). […]

Test [2] has as its system KRAS mutation-positive human cancer cell line NCI-H358. The test can be described thus: In vivo antitumor activity, NCI-H358-transplanted models (Example 5). Also noted: species or system nude mice. The settings on record: sodium salt of compound 1 0.25 mg/kg orally once a day and/or TNO155 5 mg/kg orally twice a day, 21 days. The method, then:
as §1, §2
Administration to the NCI-H358-transplanted models was performed as described below. The sodium salt of the compound 1 and the solvent D were administered at 0.25 mg/kg and 10 ml/kg, respectively, to the single-agent administration group of the sodium salt of the compound 1. TNO155 and the solvent A were administered at 5 mg/kg and 10 ml/kg, respectively, to the single-agent administration group of TNO155. […]
as §3

Test [3] relates to KRAS mutation-positive human cancer cell line NCI-H441. The experiment in a line: In vivo antitumor activity, NCI-H441-transplanted models (Example 5). On the set-up: species or system nude mice. The settings on record: sodium salt of compound 1 0.125 or 0.25 mg/kg orally once a day and/or TNO155 5 or 10 mg/kg orally twice a day, 13 days. The method, then: as §1, §2
Administration to the NCI-H441-transplanted models was performed as described below. The sodium salt of the compound 1 and the solvent D were administered at 0.125 mg/kg or 0.25 mg/kg and 10 ml/kg, respectively, to the single-agent administration group of the sodium salt of the compound 1. […]
as §3

Test [4] has as its system phosphorylation of MEK and ERK and binding between KRAS and GTP within human cancer cells (NCI-H2122, NCI-H1373, NCI-H441, HPAC). The experiment in a line: In vitro RAS signal inhibitory activity evaluation (Western blot). The settings on record: for attenuation of inhibition of pMEK and pERK by lapse of time (Western blot, FIGS. 2 and 3): cells recovered after 4, 24 or 72 hours, single-agent or combined treatment; for inhibition of pMEK, pERK, DUSP4 and DUSP6 (Western blot, FIGS. 2 and 3): 3, 10 or 30 nmol/L compound 1, 1000 nmol/L TNO155, 100 nmol/L GDC-1971. (In general: In western blotting, separated proteins are transferred to a membrane and probed.)
Experimental: The human cancer cells used were KRAS mutation-positive human lung cancer cell lines NCI-H2122 (KRAS-G12C mutation), NCI-H1373 (KRAS-G12C mutation), NCI-H441 (KRAS-G12V mutation) and HPAC (KRAS-G12D) (all, ATCC). These cells were inoculated to a three-dimensional culture plate PrimeSurface (Sumitomo Bakelite Co., Ltd.) containing a medium. The plate inoculated with the cells was cultured at 37° C. in a 5% carbon dioxide incubator for 24 hours. […] The plate thus subjected to single-agent treatment or combined treatment was cultured at 37° C. in a 5% carbon dioxide incubator. After a lapse of 4 hours, 24 hours or 72 hours, the cells were recovered. The recovered cells were lysed with Cell Lysis Buffer (Cell Signaling Technology, Inc.) containing protease and phosphatase inhibitors (Thermo Fisher Scientific Inc.) to obtain a protein solution.
RAS-GTP, an activated form of RAS, was recovered from a portion of the obtained protein solution using Active Ras Pull-Down and Detection Kit (Thermo Fisher Scientific Inc.). SDS-PAGE was carried out using the obtained RAS-GTP concentrated solution and the protein solution, and migrated proteins were transferred to a PVDF membrane using Trans-Blot Turbo Transfer System (Bio-Rad Laboratories, Inc.). After blocking, the PVDF membrane was reacted with a primary antibody and a secondary antibody in this order. The chemiluminescence of protein bands was caused with Chemi-lumi One Super (Nacalai Tesque, Inc.). The bands were detected with ChemiDoc Touch Imaging System (Bio-Rad Laboratories, Inc.).
“KRAS-GTP” depicts KRAS bound with GTP. “pMEK” and “pERK” depict phosphorylated MEK and ERK, respectively.

For test [5], the system named is KRAS-G12C mutation-positive human cancer cell line MIA PaCa-2. The test can be described thus: In vivo antitumor activity, MIA PaCa-2 xenograft mice (Example 3). The settings on record: sodium salt of compound 1 0.25 mg/kg and/or sotorasib 10 mg/kg, orally once a day for 14 days. On the set-up: species or system nude mice.
Experimental: (§7) This evaluation employed xenograft mice in which a KRAS-G12C mutation-positive human cancer cell line MIA PaCa-2 or NCI-H2122 (both, ATCC) was transplanted. The xenograft mice were prepared by subcutaneously transplanting 5×10^6 human cells per mouse to nude mice. After cell transplantation, the mice were grouped (n=8) when a tumor volume reached 200 to 340 mm^3.
The sodium salt of the compound 1 was dissolved in 10% DMSO/10% Cremophor EL/15% HP-β-CD (2-hydroxypropyl-β-cyclodextrin)/15% polyethylene glycol-400/50% injectable distilled water (solvent A) for administration. […] The sodium salt of the compound 1 and the solvent B were administered at 0.25 mg/kg and 20 ml/kg, respectively, to the single-agent administration group of the sodium salt of the compound 1. […] The solvent A and the solvent B were administered at 20 ml/kg and 20 ml/kg, respectively, to a control group. […] After the completion of the administration period, an observation period of 22 days was established.
The tumor volumes of the mice were calculated according to the expression (4) given below.
The body weights of the mice were measured.
Test [6] concerns KRAS-G12C mutation-positive human cancer cell line NCI-H2122. The test can be described thus: In vivo antitumor activity, NCI-H2122 xenograft mice (Example 3). Also noted: species or system nude mice. The following applies: sodium salt of compound 1 0.25 or 0.75 mg/kg and/or adagrasib 100 mg/kg, orally once a day for 21 days.
Experimental: as §7
The solvent A and the solvent C were administered at 10 ml/kg and 20 ml/kg, respectively, to a control group.
The tumor volumes of the mice were calculated according to the expression (4) given below. […] The ordinates of graphs (a) and (c) of FIG. 17 depict the tumor volumes (mm^3), and the abscissas thereof depict the number of days after cell transplantation.
The body weights of the mice were measured. […] The ordinates of graphs (b) and (d) of FIG. 17 depict the relative body weight change (%), and the abscissas thereof depict the number of days after cell transplantation.
In test [7] the test system is KRAS mutation-positive human cancer cell line NCI-H441. The test can be described thus: In vivo antitumor activity, NCI-H441-transplanted models (Example 4). Also noted: species or system nude mice. The settings on record: sodium salt of compound 1 0.0625 mg/kg orally once a day for 10 days and/or bevacizumab 2.5 mg/kg intraperitoneal twice a week.
Experimental: (§8) The cells of each line were subcutaneously transplanted at 5×10^6 per mouse to the mice. The mice were grouped (n=5) when a tumor volume reached 200 to 300 mm^3.
Administration to the NCI-H441-transplanted models was performed as described below. […] The solvent A was administered at 20 ml/kg to a control group.
The subject of test [8] is KRAS mutation-positive human cancer cell line OV56. The experiment in a line: In vivo antitumor activity, OV56-transplanted models (Example 4). On the set-up: species or system SCID mice. The settings on record: sodium salt of compound 1 0.25 mg/kg orally once a day for 10 days and/or bevacizumab 2.5 mg/kg intraperitoneal twice a week.
Experimental: as §8
Administration to the OV56-transplanted models was performed as described below. […] The solvent A and physiological saline were administered at 20 ml/kg and 10 ml/kg, respectively, to a control group.
The subject of test [9] is KRAS mutation-positive mouse colon cancer cell line CT26. The experiment in a line: In vivo antitumor activity, CT26-transplanted models (Example 6). Also noted: species or system BALB/C mice. The following applies: sodium salt of compound 1 1 mg/kg orally once a day and/or anti-PD-L1 antibody 10 mg/kg intravenous twice a week, 21 days. As to the method:
(§4) Use in combination of the sodium salt of the compound 1 and an anti-PD-L1 antibody was evaluated for its in vivo antitumor activity using BALB/C mice in which a KRAS mutation-positive mouse colon cancer cell line CT26 (Crown Bioscience) was transplanted and C57BL/6J mice in which a KRAS mutation-positive mouse lung cancer tissue slice mLU6054 (Crown Bioscience) was transplanted. The CT26 cells and the mLU6054 tissue slice were subcutaneously transplanted at 5×10^5 and a diameter of […], respectively, per mouse to the mice. The mice were grouped (n=8) when a tumor volume reached approximately 60 to 85 mm^3.
(§5) The CT26- or mLU6054-transplanted models received the single-agent administration or combined administration of the sodium salt of the compound 1 and the anti-PD-L1 antibody. The sodium salt of the compound 1 was dissolved in solvent E for administration. The anti-PD-L 1 antibody was diluted with PBS for administration.
(§6) Administration to the CT26- or mLU6054-transplanted models was performed as described below. The sodium salt of the compound 1 and PBS were administered at 1 mg/kg and 10 ml/kg, respectively, to the single-agent administration group of the sodium salt of the compound 1. […]
as §3

The subject of test [10] is KRAS mutation-positive mouse lung cancer tissue slice mLU6054. The experiment in a line: In vivo antitumor activity, mLU6054-transplanted models (Example 6). On the set-up: species or system C57BL/6J mice. The following applies: sodium salt of compound 1 1 mg/kg orally once a day and/or anti-PD-L1 antibody 10 mg/kg intravenous twice a week, 21 days. As to the method: as §4, §5, §6, §3

Counter-ions that a name gives are not always drawn.

As to `C[C@@H]1OCC2(CCN(c3cnc(Sc4ccnc(N)c4Cl)c(N)n3)CC2)[C@@H]1N` [TNO155, (3S,4S)-8-(6-amino-5-((2-amino-3-chloropyridin-4-yl)thio)pyrazin-2-yl)-3-methyl-2-oxa-8-azaspiro[4.5]decan-4-amine, reference compound], in test [1], the “tumor volume compared with the control group (FIG. 19A)” value is given as “suppressed increase in tumor volume”. Also, in [2], the “tumor volume compared with the control group (FIG. 19B)” value is listed as “suppressed increase in tumor volume”. Besides, the “tumor volume compared with the control group (FIG. 19C)” value in test [3] is “suppressed increase in tumor volume”. Further, the “attenuation of inhibition of pMEK and pERK by lapse of time (Western blot, FIGS. 2 and 3)” value in test [4] was “tended to be attenuated as time passed”. The “inhibition of pMEK, pERK, DUSP4 and DUSP6 (Western blot, FIGS. 2 and 3)” value (“inhibition of pMEK, pERK” for short) in [4] (single-agent treatment) is “inhibited pMEK, pERK, DUSP4 and DUSP6”.

As for `CNS(=O)(=O)[N]([Na+])c1nccc(Cc2cc(C(N)=O)c(Nc3ccc(C4CC4)cc3F)c(F)c2F)c1F` [sodium salt of the compound 1], the “tumor volume compared with the control group (FIG. 17a)” value in [5] was “suppressed increase in tumor volume”. The “tumor volume compared with the control group (FIG. 17c)” value in test [6] is “suppressed increase in tumor volume”. In test [7], the “tumor volume compared with the control group (FIG. 18a)” value is “suppressed increase in tumor volume”. Besides, the “tumor volume compared with the control group (FIG. 18b)” value in test [8] was “suppressed increase in tumor volume”. In addition, in test [1], the “tumor volume compared with the control group (FIG. 19A)” value is listed as “suppressed increase in tumor volume”. In test [2], the “tumor volume compared with the control group (FIG. 19B)” value is recorded as “suppressed increase in tumor volume”. Besides, the “tumor volume compared with the control group (FIG. 19C)” value in [3] was “suppressed increase in tumor volume”. In addition, the “tumor volume compared with the control group (FIG. 20a)” value in [9] is given as “suppressed increase in tumor volume”. Moreover, the “tumor volume compared with the control group (FIG. 20b)” value in test [10] was “suppressed increase in tumor volume”.

For `N[C@@H]1c2ccccc2OC12CCN(c1cnc3c(N4CCCc5ncccc54)n[nH]c3n1)CC2` [GDC-1971, (R)-1′-(3-(3,4-dihydro-1,5-naphtyridin-1(2H)-yl)-1H-pyrazolo[3,4-b]pyridin-6-yl)-3H-spiro[benzofuran-2,4′-piperidin]-3-amine], in [4], the “attenuation of inhibition of pMEK and pERK by lapse of time (Western blot, FIGS. 2 and 3)” value is “tended to be attenuated as time passed”. Moreover, the “inhibition of pMEK, pERK” value in [4] (single-agent treatment) was “inhibited pMEK, pERK, DUSP4 and DUSP6”.

With `CNS(=O)(=O)Nc1nccc(Cc2cc(C(N)=O)c(Nc3ccc(C4CC4)cc3F)c(F)c2F)c1F` [compound 1, 2-(4-cyclopropyl-2-fluoro-anilino)-3,4-difluoro-5-[[3-fluoro-2-(methylsulfamoylamino)-4-pyridyl]methyl]benzamide], the “attenuation of inhibition of pMEK and pERK by lapse of time (Western blot, FIGS. 2 and 3)” value in test [4] is “tended to be attenuated as time passed”. Also, the “inhibition of pMEK and pERK (Western blot, FIG. 1)” value in test [4] (single-agent treatment, after 4 hours and 24 hours, 300 nmol/L compound 1) is “inhibited pMEK and pERK”. Also, the “inhibition of pMEK, pERK” value in test [4] (single-agent treatment) was “inhibited pMEK, pERK, DUSP4 and DUSP6”.

The values are drawn from patent US20250262194A1, “PHARMACEUTICAL FOR TREATING OR PREVENTING CANCER” (CHUGAI SEIYAKU KABUSHIKI KAISHA, priority 2022, published 2025).
